Results: patent US9351931B2, “Pharmaceutical preparation for tumor chemotherapy and method for producing the same” (HUBEI SOUNDNY BIOTECHNOLOGY CO., LTD., priority 2012, dated 2016)

Legend:
[1] = tested on: A2780 human ovarian carcinoma cells; assay: Co-culture killing of human ovarian carcinoma cells (Example 4); assay type: cell-based; details: pure drug, 100 μg cisplatin to 5×10^6 A2780 cells, 72 hours; FIG. 4E
Method: (§1) the third group of H22 mouse hepatoma cells and the third group of the A2780 human ovarian carcinoma cells are left without any treatment.
(§2) 4) half of the micro-particles taken from the above test group, and half of the cell vesicles taken from the control group are respectively co-cultured with 5×10^4 tumor cells taken from the third group of tumor cells of different types for 72 hours within a 24-pore plate, the death of the tumor cells is observed, wherein the cell vesicles that are co-cultured with the tumor cells are the cell vesicles derived from the same type of tumor cells, and the micro-particles that are co-cultured with the tumor cells are the micro-particles formed after the cell vesicles derived from the same type of tumor cells have the chemotherapeutic drug wrapped therein;

[2] = tested on: H22 mouse hepatoma cells; assay: Co-culture killing of mouse hepatoma cells (Example 4); assay type: cell-based; details: pure drug, 10 μg methotrexate to 5×10^6 H22 cells, 72 hours; FIG. 4B
Method: as §1, §2

N.N.[Cl][Pt][Cl] [cisplatin]
death of the tumor cells [1]: there are still certain amount of tumor cells survived

CN(Cc1cnc2nc(N)nc(N)c2n1)c1ccc(C(=O)N[C@@H](CCC(=O)O)C(=O)O)cc1 [methotrexate]
death of the tumor cells [2]: there are still certain amount of tumor cells survived
